Measurements taken from US20140348865A1, “[…] ON AN HIV-1 V1V2 SITE-OF-VULNERABILITY” (The United States of America, as represented by the …, priority 2011, published 2014).

Legend:
PG9 = experiment: ELISA of recombinant gp120 monomers with PG9; format: binding, human; details: gp120 monomer of the named strain
Fab PG9 = experiment: Saturation transfer difference NMR of glycan binding to PG9; design: species or system human; details: for interaction with PG9 by STD NMR: 1.5 mM glycan, 15 μM Fab PG9
Source text: FIGS. 6A-6B illustrate two glycans and a strand comprise a V1V2 site-of-vulnerability. Glycan, electrostatic, and sequence-independent interactions allow PG9 to recognize a glycopeptide site on V1V2. A, Site characteristics in CAP45 strain of HIV-1. Glycans 160 and 156 (173 with ZM109) are highlighted in light grey, and strands B and C are highlighted in dark grey, with the rest of V1V2 in semi-transparent white. The interactive surface of V1V2 with PG9 is shown, colored according the local electrostatic potential as in FIG. 5B. The contribution of each structural element to that surface is provided as a percentage of the total. […] C, Langmuir binding curve used to obtain the KD a function of glycan concentration (A signals correspond to N-acetyl protons, which are shown in the boxed area of the upper panel). D, Stacked STD NMR spectra as a function of Man5GlcNAc2-Asn concentration.
FIG. 25 illustrates binding of GlcNAc2 to PG9 by NMR. STD (lower trace) and reference (upper trace) NMR spectra of 1.5 mM GlcNAc2 in the presence of 15 μM Fab PG9.
FIG. 26 illustrates binding of mannopentaose to PG9 by NMR. STD (lower trace) and reference (upper trace) NMR spectra of 1.5 mM mannopentaose (structure shown above) in the presence of 15 μM Fab PG9.
All NMR experiments were carried out at 298 K on Bruker avance 600 or avance 500 instruments equipped with a triple resonance cryo-probe incorporating gradients in z-axis. 1D STD spectra were acquired by selectively irradiating at −1 ppm and +40 ppm as on- and off-resonance frequencies, respectively, using a train of 50 ms Gaussian-shaped radio frequency pulses separated by 1 ms delays and an optimized power level of 57 db. During NMR experiments water suppression was achieved by binomial 3-9-19 pulse sequence and protein resonances were suppressed by applying 10 ms T1ρ filter. Samples were prepared in 20 mM sodium phosphate buffer containing 50 mM sodium chloride at pH 6.8. The NMR data were processed and analyzed by using TOPSPIN 2.1. […]

Compound | PG9 recognition in the gp120 monomer context (PG9) | further results
16055: gp120 monomer of HIV-1 Clade C strain 16055, SEQ ID NO: 6 [compound 16055] | retained PG9 recognition | 
CC(=O)N[C@H]1[C@H](O[C@H]2[C@H](O)[C@@H](NC(C)=O)C(O)O[C@@H]2CO)O[C@H](CO)[C@@H](O)[C@@H]1O (some centres unmarked) [(N-acetylglucosamine)2] |  | interaction with PG9 by STD NMR (Fab PG9): not observed
CC(=O)N[C@@H]1[C@@H](O)[C@H](O[C@@H]2O[C@H](CO)[C@@H](O[C@@H]3O[C@H](CO[C@H]4O[C@H](CO[C@H]5O[C@H](CO)[C@@H](O)[C@H](O)[C@@H]5O)[C@@H](O)[C@H](O[C@H]5O[C@H](CO)[C@@H](O)[C@H](O)[C@@H]5O)[C@@H]4O)[C@@H](O)[C@H](O[C@H]4O[C@H](CO)[C@@H](O)[C@H](O)[C@@H]4O)[C@@H]3O)[C@H](O)[C@H]2NC(C)=O)[C@@H](CO)O[C@H]1NC(=O)C[C@H](N)C(=O)O [Asn-(N-actylglucosamine)2(mannose)5] |  | Kd (Fab PG9; titration series, Langmuir binding curve, read-out: affinity for PG9): 1.6 ± 0.9 mM
CC(=O)N[C@H]1[C@H](O[C@H]2[C@H](O)[C@@H](NC(C)=O)C(O)O[C@@H]2CO)O[C@H](CO)[C@@H](O[C@@H]2O[C@H](CO[C@H]3O[C@H](CO[C@H]4O[C@H](CO)[C@@H](O)[C@H](O)[C@@H]4O)[C@@H](O)[C@H](O[C@H]4O[C@H](CO)[C@@H](O)[C@H](O)[C@@H]4O)[C@@H]3O)[C@@H](O)[C@H](O[C@H]3O[C@H](CO)[C@@H](O)[C@H](O)[C@@H]3O)[C@@H]2O)[C@@H]1O (some centres unmarked) [oligomannose-5] |  | interaction with PG9 by STD NMR (Fab PG9): weak interactions
CAP45: gp120 monomer of HIV-1 Clade C strain CAP45, SEQ ID NO: 3 | retained PG9 recognition | 
TRJO: gp120 monomer of HIV-1 Clade B strain TRJO, SEQ ID NO: 7 | retained PG9 recognition | 
ZM53: gp120 monomer of HIV-1 Clade C strain ZM53, SEQ ID NO: 4 | retained PG9 recognition | 
ZM109: gp120 monomer of HIV-1 Clade C strain ZM109, SEQ ID NO: 2 | retained PG9 recognition | 
